Experimental data: patent US20230019619A1, “TREATMENT OF A DISEASE OF THE GASTROINTESTINAL TRACT WITH A TLR MODULATOR” (BIORA THERAPEUTICS, INC., priority 2016, published 2023)

Assay: Tacrolimus tissue pharmacokinetics, oral versus intra-cecal ingestible device delivery
Assay type: in vivo, Yorkshire-Cross farm swine
Details: swine, intra-cecal as compared to oral, 12 hours post-dose
Experimental: The primary objective of this study was to compare the tissue, plasma, rectal sample, and GI content pharmacokinetics of tacrolimus through oral versus intra-cecal ingestible device delivery in normal Yorkshire-Cross farm swine.
No further randomization procedure was employed.
Animals in Group 1 received an ingestible device containing 0.8 mL of vehicle solution (80% alcohol, 20% HCO-60). Animals in Group 2 received orally […] liquid formulation of tacrolimus at 4 mg/0.8 mL per animal (Prograf: 5 mg/mL). Animals in Group 3 received intra-cecally an ingestible device containing tacrolimus at 1 mg in 0.8 mL per ingestible device. […]
Approximately 200˜400 mg of rectal content were collected, if available, with a fecal swab (Copan Diagnostics Nylon Flocked Dry Swabs, 502CS01). The fecal swab was pre-weighed and weighed after collection in the collection tube (Sterile Tube and Cap No Media, PFPM913S), and the sample weight was recorded. […]
For tissue necropsy, small intestine fluid and cecal fluid were collected separately from all the animals into two separate square plastic bottles, and stored at −20° C. The length and diameter of the cecum and the colon was measured from one animal in each group and recorded for reference. […] All samples were weighed, and the tissue sample weights were recorded. […]

## C=CC[C@@H]1/C=C(\C)C[C@H](C)C[C@H](OC)[C@H]2O[C@@](O)(C(=O)C(=O)N3CCCC[C@H]3C(=O)O[C@H](/C(C)=C/[C@@H]3CC[C@@H](O)[C@H](OC)C3)[C@H](C)[C@@H](O)CC1=O)[C@H](C)C[C@@H]2OC [tacrolimus]
  mean concentration in the cecum tissue and the proximate colon tissue (FIG. 76): higher
